Consider 33 compounds from patent EP4748833A1, “AMPK AGONIST AND USE THEREOF” (priority 2023, dated 2025).

For this assay, the target named is T1, AMPKα1β1γ1 (Homo sapiens, UniProt Q13131+Q9Y478).
T1 construct: purchased CARNA 02-113
The assay can be described thus: In vitro assay for AMPK (α1β1γ1) enzyme agonist activity (TR-FRET). The format is biochemical. Particulars: for Emax: 1 h, read-out: Top value. The procedure: Test compounds were dissolved in DMSO to prepare 10 mM stock solution, which was then diluted to the predetermined test concentrations using kinase buffer (50 mM HEPES, 1 mM EDTA, 10 mM MgCl2, 0.01% Brij-35, pH = 7.5). Into a 384-well plate were added 5 µL of AMPKα1β1γ1 (CARNA, 02-113), 2.5 µL of the diluted test compound solution, and 2.5 µL of a mixture of Ulight-CRBN and ATP, resulting in the following final concentrations: AMPKα1β1γ1 at 1.6 mg/L, Ulight-CRBN at 5 nM, and ATP at 0.1 mM. The components were mixed evenly, and reacted at room temperature for 1 hour. Subsequently, 5 µL of LANCE Detection Buffer (CR97-100, PerkinElmer) containing 40 mM EDTA was added. After standing for 5 minutes, 5 µL of 4× Eu-anti-phospho-CREB Antibody (TRF0200-M, PerkinElmer) was added, and the mixture was allowed to stand at room temperature for 1 h. The values of samples in each well were read using a microplate reader in TR-FRET mode (excitation wavelength: 320 nm; emission wavelengths: 665 nm and 615 nm). By comparing the values with those of the blank control group (1% DMSO) and the positive control group (1 µM A769662), the relative activity of AMPKα1β1γ1 at each test compound concentration (4.57 nM, 13.72 nM, 41.15 nM, 123.46 nM, 370.37 nM, 1111.11 nM, 3333.33 nM, and 10000 nM) was calculated, with the activity of 1 µM A769662 set as 100%. The data were analysed in GraphPad Prism 9 using a Dose-response-Stimulation four-parameter regression model to obtain the Top and EC50 values for the test compounds. [drawing 522] has a structure of A769662.
(Time-resolved FRET reads energy transfer from a long-lived donor to a nearby acceptor.)

[1] abbreviates: AMPKα1β1γ1 1.6 mg/L, ATP 0.1 mM, 1 hour at room temperature, four-parameter regression, read-out: EC50.

Read-outs that look alike come from different tables or passages of the source.

Usually EC50 stands for the concentration that produces a half-maximal response.

T1 sequence (Q13131 whole entry): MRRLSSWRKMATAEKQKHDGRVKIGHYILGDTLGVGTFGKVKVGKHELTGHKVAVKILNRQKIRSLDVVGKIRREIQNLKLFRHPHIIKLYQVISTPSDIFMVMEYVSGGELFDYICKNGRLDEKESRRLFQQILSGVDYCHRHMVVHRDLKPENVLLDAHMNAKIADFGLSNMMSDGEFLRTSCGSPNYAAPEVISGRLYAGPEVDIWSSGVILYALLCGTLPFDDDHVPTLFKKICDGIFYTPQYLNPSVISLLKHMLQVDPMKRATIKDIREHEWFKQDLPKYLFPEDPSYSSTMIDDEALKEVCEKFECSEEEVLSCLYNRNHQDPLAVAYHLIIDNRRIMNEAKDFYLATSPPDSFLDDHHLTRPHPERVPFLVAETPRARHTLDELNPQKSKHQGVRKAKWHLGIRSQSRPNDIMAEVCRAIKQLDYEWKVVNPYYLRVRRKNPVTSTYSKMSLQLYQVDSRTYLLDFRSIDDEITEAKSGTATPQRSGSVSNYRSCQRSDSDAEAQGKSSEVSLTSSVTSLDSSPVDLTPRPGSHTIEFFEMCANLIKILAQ
T1 sequence (Q9Y478 whole entry): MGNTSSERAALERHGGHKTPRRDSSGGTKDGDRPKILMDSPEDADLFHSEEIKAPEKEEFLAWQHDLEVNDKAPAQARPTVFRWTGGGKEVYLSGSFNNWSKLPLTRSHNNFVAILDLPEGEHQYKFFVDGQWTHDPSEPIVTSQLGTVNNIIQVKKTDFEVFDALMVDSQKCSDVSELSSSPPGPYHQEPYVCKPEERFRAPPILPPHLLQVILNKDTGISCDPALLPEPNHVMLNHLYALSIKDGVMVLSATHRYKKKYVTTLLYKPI
T1 sequence (P54619 whole entry partner): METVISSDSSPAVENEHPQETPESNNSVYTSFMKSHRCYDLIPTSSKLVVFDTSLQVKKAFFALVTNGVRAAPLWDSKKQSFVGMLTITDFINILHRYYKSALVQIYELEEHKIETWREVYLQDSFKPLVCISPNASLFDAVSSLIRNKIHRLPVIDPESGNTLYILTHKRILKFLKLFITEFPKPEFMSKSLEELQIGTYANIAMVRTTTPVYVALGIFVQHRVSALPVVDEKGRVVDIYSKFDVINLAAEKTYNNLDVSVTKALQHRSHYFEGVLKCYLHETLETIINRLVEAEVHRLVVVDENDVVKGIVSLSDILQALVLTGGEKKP

`O=C(NCc1ccco1)c1c[nH]c2cc(Cl)c(-c3ccc(C4(CO)CC4)cc3)cc12` [Compound 14]: the Emax is > 100%. Moreover, under setting [1], the EC50 was > 800 nM.

With `O=C(NCc1ncco1)c1c[nH]c2cc(Cl)c(-c3ccc(C4(CO)CC4)cc3)cc12` [Compound 16], the Emax lay within 70 to 100%. Also, under setting [1], the EC50 is 200 to 800 nM.

`Cn1ccc2cc(-c3cc4c(C(=O)NCc5ncco5)c(O)[nH]c4cc3Cl)ccc21` [Compound 32]: the Emax is 70 to 100%. In addition, the EC50 under setting [1] is 200 to 800 nM.

Turning to `O=C(O)Cc1c[nH]c2cc(Cl)c(-c3ccc(C4(O)CCC4)cc3)nc12` [Compound 1], the Emax is 50 to 70%. Also, the EC50 under setting [1] is > 800 nM.

For `O=C(O)C(=O)c1c[nH]c2cc(Cl)c(-c3ccc(C4(O)CCC4)cc3)nc12` [Compound 3], the Emax was in the range of 50 to 70%. Further, the EC50 under setting [1] was > 800 nM.

Consider `O=C(O)C(=O)c1c[nH]c2cc(Cl)c(-c3ccc(-c4ccccc4O)cc3)cc12` [Compound 4], for which the Emax fell in the range of 50 to 70%. Besides, the EC50 under setting [1] was < 200 nM.

For `O=C(NCc1ccco1)c1c(O)[nH]c2cc(Cl)c(-c3ccc(-c4ccccc4O)cc3)cc12` [Compound 37], the Emax was > 100%. Moreover, the half-maximal effective concentration (EC50) under setting [1] was 200 to 800 nM.

As to `O=C(NCc1ccccn1)c1c[nH]c2cc(Cl)c(-c3ccc(C4(O)CCC4)cc3)cc12` [Compound 9], the Emax was > 100%. In addition, the EC50 under setting [1] is > 800 nM.

Regarding `O=C(Nc1ncco1)c1c[nH]c2cc(Cl)c(-c3ccc(-c4ccccc4)cc3)cc12` [Compound 24], the EC50 is > 800 nM and the Emax was > 100%.

On to `COC(=O)C(=O)c1c[nH]c2cc(Cl)c(-c3ccc(C4(CO)CC4)cc3)cc12` [Compound 17], for which the Emax was 70 to 100%. For the same compound, under setting [1], the EC50 is < 200 nM.

Turning to `O=C(O)C(=O)c1c[nH]c2cc(Cl)c(-c3ccc(C4(CO)CC4)cc3)cc12` [Compound 6], the Emax was > 100%. For the same compound, the EC50 under setting [1] was < 200 nM.

For the compound `O=C(NCc1ccno1)c1c[nH]c2cc(Cl)c(-c3ccc(C4(O)CCC4)cc3)cc12` [Compound 11], the Emax was in the range of 70 to 100%. Under setting [1], the EC50 was in the range of 200 to 800 nM.

Turning to `Cn1ccc2cc(-c3cc4c(C(=O)C(=O)O)c[nH]c4cc3Cl)ccc21` [Compound 5], the Emax lay in the range of 70 to 100%. The EC50 under setting [1] was < 200 nM.

As to `O=C(NCC1COC1)c1c[nH]c2cc(Cl)c(-c3ccc(C4(O)CCC4)cc3)cc12` [Compound 10], the Emax was in the range of 50 to 70%. Besides, the EC50 under setting [1] was > 800 nM.

With `O=C1Nc2cc(Cl)c(-c3ccc(C4(CO)CC4)cc3)cc2C1=CNCc1ccco1` [Compound 21], the Emax is < 50%. The EC50 under setting [1] is > 800 nM.

With `O=C(O)C(=O)c1c[nH]c2cc(Cl)c(-c3ccc(C4(O)CCC4)cc3)cc12` [Compound 2], the Emax fell in the range of 70 to 100%. Moreover, the EC50 under setting [1] is < 200 nM.

Regarding `O=C(NCc1cnoc1)c1c[nH]c2cc(Cl)c(-c3ccc(C4(O)CCC4)cc3)cc12` [Compound 12], the Emax is > 100%. Also, under setting [1], the EC50 was > 800 nM.

In the case of `O=C(Nc1cc[nH]n1)c1c[nH]c2cc(Cl)c(-c3ccc(C4(O)CCC4)cc3)cc12` [Compound 33], the Emax was > 100%. The EC50 under setting [1] is 200 to 800 nM.

For the compound `O=C(O)C(=O)c1c[nH]c2cc(Cl)c(-c3ccc(-c4ccccc4)cc3)cc12` [Compound 8], the Emax was < 50%. Further, the EC50 under setting [1] is < 200 nM.

In the case of `O=C(Nc1ccn[nH]1)c1c[nH]c2cc(Cl)c(-c3ccc(C4(CO)CC4)cc3)cc12` [Compound 23], the Emax is > 100%. The EC50 under setting [1] is < 200 nM.

Regarding `Cn1ccc2cc(-c3cc4c(C(=O)NCc5ccco5)c(O)[nH]c4cc3Cl)ccc21` [Compound 19], the Emax was > 100%. The EC50 under setting [1] was in the range of 200 to 800 nM.

Turning to `O=C(NCc1cccs1)c1c[nH]c2cc(Cl)c(-c3ccc(C4(CO)CC4)cc3)cc12` [Compound 15], the Emax was > 100%. Further, under setting [1], the EC50 was > 800 nM.

Consider `O=C(NCc1ccco1)c1c(O)[nH]c2cc(Cl)c(-c3ccc(C4(CO)CC4)cc3)cc12` [Compound 31], for which the Emax was > 100%. Further, the 50% effective concentration (EC50) under setting [1] was in the range of 200 to 800 nM.

For the compound `O=C(NCc1ccco1)c1c[nH]c2cc(Cl)c(-c3ccc(-c4ccccc4O)cc3)cc12` [Compound 36], the Emax is 50 to 70%. In addition, the EC50 under setting [1] is < 200 nM.

Take `CN(C(=O)c1c[nH]c2cc(Cl)c(-c3ccc(C4(CO)CC4)cc3)cc12)c1cc[nH]n1` [Compound 27]: the EC50 was > 800 nM and the Emax is > 100%.

As for `Cn1ccc2cc(-c3cc4c(C(=O)NCC(=O)O)c(O)[nH]c4cc3Cl)ccc21` [Compound 20], the Emax is > 100%. Under setting [1], the concentration for a half-maximal effect (EC50) lay in the range of 200 to 800 nM.

Take `O=C(NCc1nnn[nH]1)c1c[nH]c2cc(Cl)c(-c3ccc(C4(CO)CC4)cc3)cc12` [Compound 35]: the Emax is > 100%. Further, the EC50 under setting [1] was < 200 nM.

For `CN(Cc1cccs1)C(=O)c1c[nH]c2cc(Cl)c(-c3ccc(C4(CO)CC4)cc3)cc12` [Compound 25], the EC50 is > 800 nM and the Emax is < 50%.

As for `O=C(Nc1ncc[nH]1)c1c[nH]c2cc(Cl)c(-c3ccc(-c4ccccc4)cc3)cc12` [Compound 13], the Emax was > 100%. Moreover, under setting [1], the EC50 is > 800 nM.

For `Cn1ccc2cc(-c3cc4c(cc3Cl)NC(=O)C4(C)C(=O)NCc3ccco3)ccc21` (centres unmarked) [Compound 22], under setting [1], the concentration giving a half-maximal response (EC50) is > 800 nM.

As to `COc1ccc(-c2cc3c(C(=O)C(=O)O)c[nH]c3cc2Cl)cc1` [Compound 7], the Emax fell in the range of 70 to 100%. For the same compound, the EC50 under setting [1] was 200 to 800 nM.

Regarding `O=C(Nc1cc[nH]n1)c1c[nH]c2cc(Cl)c(-c3ccc(-c4ccccc4O)cc3)cc12` [Compound 34], the EC50 fell in the range of 200 to 800 nM and the Emax was > 100%.

Take `CNC(=O)C(=O)c1c[nH]c2cc(Cl)c(-c3ccc(C4(CO)CC4)cc3)cc12` [Compound 18]: the Emax lay within 50 to 70%. Under setting [1], the EC50 is 200 to 800 nM.
